Experiments:
5-HT1A = biological target: T1, 5-HT1A (Homo sapiens, UniProt P08908); experiment: Binding assay 5-HT1A
T1 sequence (P08908 1-422): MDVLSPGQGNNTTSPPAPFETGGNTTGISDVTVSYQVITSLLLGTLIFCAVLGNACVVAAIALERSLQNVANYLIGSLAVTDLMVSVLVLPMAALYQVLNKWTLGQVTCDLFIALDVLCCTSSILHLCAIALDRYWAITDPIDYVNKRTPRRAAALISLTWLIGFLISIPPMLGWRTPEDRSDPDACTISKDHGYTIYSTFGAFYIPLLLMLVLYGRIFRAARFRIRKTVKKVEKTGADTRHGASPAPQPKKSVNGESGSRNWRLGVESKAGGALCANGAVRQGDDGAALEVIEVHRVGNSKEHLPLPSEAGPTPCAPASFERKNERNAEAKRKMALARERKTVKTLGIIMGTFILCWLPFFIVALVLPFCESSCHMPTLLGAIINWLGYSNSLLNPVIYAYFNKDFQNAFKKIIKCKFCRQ
Description: (§1) 2R,6R-hydroxynorketamine was investigated for binding to monoamine oxidases A and B, monoamine transporters, as well as a variety of 5HT receptors.

[1] = test system: α-amino-3-hydroxy-5-methyl-4-isoxazolepropionic acid receptor (AMPAR)-mediated currents; experiment: In vitro electrophysiology, field excitatory postsynaptic potentials; conditions: estimated
Experimental: The free (unbound) concentration of 2R,6R-hydroxynorketamine producing pharmacodynamics activity in the brain is estimated to be approximately 10 μM.

[2] = DSC compatibility with excipients and capsule shells
5-HT transporter = 5-HT transporter (Homo sapiens, UniProt P31645); experiment: Binding assay 5-HT transporter
Description: as §1

[3] = pKa by potentiometric (pH-metric) titration; type: physicochemical; conditions: methanol-water co-solvent, Yasuda-Shedlovsky extrapolation
Experimental: The sample pKa was determined using the potentiometric (pH-metric) technique following attempts to determine pKa via UV spectroscopic techniques.
UV-metric: The sample was initially titrated in a fast-UV triple titration between pH 2.0-12.0 at concentrations of 31-19 μM, under aqueous conditions. No evidence of any sample ionisation within the investigated pH range was inferred from the spectroscopic data obtained, meaning that any ionisable groups were remote from chromophores. Therefore, the sample was analysed using the pH-metric method.
pH-metric: The sample was subsequently titrated using the potentiometric technique to determine the non-UV active pKas. A triple titration was carried out under methanol-water co-solvent conditions from pH 2.0-12.0 at concentrations of 0.9-0.6 mM (the methanol mixing ratio varied from 53.0 to 33.3% w/w).

[4] = Turbidimetric aqueous solubility; type: physicochemical
CYP2D6 = CYP2D6 (Homo sapiens, UniProt P10635); experiment: CYP inhibition assay CYP2D6; type: in vitro ADME
Description: (§2) Cytochrome P450s (CYPs) are a family of enzymes that play a primary role in the metabolism of a wide variety of drugs. 2R,6R-hydroxynorketamine was investigated for its potential to inhibit the action of 7 key CYP enzymes using an inhibition assay measuring reduction in the formation of metabolites compared to control.

dopamine transporter = dopamine transporter (Homo sapiens, UniProt Q01959); experiment: Binding assay dopamine transporter
Description: as §1

[5] = biological target: norepinephrine transporter (Homo sapiens, UniProt P23975); experiment: Binding assay norepinephrine transporter
Description: as §1

CYP1A2 = biological target: T2, CYP1A2 (Homo sapiens, UniProt P05177); experiment: CYP inhibition assay CYP1A2; type: in vitro ADME
T2 sequence (P05177 1-516): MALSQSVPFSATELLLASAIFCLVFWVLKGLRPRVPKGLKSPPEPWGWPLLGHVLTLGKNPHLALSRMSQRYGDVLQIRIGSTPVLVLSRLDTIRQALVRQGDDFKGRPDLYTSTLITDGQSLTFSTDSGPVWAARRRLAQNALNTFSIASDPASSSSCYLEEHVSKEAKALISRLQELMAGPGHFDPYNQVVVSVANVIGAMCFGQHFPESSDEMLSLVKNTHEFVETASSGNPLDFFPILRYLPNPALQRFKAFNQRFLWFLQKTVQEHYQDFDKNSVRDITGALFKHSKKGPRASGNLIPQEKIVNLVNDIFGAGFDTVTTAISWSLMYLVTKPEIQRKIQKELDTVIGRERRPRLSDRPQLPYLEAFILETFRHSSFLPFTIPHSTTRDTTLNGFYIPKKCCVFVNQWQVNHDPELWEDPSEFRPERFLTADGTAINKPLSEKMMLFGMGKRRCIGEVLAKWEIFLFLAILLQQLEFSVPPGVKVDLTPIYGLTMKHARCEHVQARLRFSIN
Description: as §2

CYP2C8 = biological target: T3, CYP2C8 (Homo sapiens, UniProt P10632); experiment: CYP inhibition assay CYP2C8; type: in vitro ADME
T3 sequence (P10632 1-490): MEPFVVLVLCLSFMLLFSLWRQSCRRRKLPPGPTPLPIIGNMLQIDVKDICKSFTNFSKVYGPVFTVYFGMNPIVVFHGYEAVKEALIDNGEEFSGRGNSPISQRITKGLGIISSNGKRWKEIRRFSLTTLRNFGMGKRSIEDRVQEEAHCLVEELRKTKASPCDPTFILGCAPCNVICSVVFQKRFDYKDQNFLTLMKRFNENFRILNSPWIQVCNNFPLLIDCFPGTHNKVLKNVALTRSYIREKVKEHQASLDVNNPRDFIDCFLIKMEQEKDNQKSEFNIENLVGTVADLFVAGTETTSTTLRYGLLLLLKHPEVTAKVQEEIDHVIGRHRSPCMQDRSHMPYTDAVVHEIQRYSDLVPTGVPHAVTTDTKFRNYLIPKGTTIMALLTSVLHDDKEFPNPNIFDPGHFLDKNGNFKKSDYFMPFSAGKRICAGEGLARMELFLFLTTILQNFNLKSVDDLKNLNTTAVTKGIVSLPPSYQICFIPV
Description: as §2

Sequence of CYP2D6 (P10635 whole entry): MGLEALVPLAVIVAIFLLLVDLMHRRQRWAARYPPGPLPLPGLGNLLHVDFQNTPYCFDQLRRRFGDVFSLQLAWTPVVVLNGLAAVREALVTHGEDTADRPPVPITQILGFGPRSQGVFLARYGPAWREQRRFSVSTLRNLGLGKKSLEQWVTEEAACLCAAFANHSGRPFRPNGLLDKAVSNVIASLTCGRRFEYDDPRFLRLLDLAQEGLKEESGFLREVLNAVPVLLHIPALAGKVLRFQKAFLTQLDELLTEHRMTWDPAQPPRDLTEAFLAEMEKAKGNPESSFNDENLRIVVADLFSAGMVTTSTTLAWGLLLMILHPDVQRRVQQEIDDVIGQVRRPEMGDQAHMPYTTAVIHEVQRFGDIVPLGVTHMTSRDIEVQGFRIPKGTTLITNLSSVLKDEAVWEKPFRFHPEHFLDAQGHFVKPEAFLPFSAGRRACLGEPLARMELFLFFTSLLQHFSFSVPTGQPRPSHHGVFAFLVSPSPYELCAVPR
Sequence of 5-HT transporter (P31645 whole entry, species assumed): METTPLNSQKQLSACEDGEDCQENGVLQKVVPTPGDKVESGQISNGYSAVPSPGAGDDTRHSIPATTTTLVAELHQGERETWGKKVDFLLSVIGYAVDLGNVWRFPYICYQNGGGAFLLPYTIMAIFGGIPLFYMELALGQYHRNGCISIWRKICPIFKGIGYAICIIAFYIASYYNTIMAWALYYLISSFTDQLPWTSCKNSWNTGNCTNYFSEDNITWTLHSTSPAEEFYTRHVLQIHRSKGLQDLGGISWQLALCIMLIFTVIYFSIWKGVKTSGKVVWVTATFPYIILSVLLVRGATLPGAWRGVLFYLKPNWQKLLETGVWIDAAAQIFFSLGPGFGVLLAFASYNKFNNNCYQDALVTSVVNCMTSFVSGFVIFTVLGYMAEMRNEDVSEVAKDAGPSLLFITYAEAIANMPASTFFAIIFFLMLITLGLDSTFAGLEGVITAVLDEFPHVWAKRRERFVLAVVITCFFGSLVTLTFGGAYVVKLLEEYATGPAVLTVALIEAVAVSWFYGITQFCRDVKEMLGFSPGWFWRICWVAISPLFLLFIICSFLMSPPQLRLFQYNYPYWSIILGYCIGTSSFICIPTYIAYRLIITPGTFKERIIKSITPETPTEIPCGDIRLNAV
Sequence of norepinephrine transporter (P23975 whole entry, species assumed): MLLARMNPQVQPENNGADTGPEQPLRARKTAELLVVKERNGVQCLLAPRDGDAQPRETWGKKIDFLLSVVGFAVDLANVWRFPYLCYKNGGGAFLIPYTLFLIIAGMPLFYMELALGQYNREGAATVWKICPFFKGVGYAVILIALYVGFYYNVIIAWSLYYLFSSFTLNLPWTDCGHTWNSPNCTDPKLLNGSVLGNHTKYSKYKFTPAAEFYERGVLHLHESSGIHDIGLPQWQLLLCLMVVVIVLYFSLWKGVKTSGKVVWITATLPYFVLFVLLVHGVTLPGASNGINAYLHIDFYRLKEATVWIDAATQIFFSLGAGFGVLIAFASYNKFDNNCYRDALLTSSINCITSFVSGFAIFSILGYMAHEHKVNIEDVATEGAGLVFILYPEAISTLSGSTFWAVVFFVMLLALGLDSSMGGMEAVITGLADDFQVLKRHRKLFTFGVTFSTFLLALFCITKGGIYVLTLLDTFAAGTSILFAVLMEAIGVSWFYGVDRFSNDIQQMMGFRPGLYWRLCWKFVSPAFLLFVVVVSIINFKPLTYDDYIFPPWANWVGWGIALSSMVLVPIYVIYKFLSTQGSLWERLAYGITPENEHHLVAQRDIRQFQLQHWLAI
Sequence of dopamine transporter (Q01959 whole entry): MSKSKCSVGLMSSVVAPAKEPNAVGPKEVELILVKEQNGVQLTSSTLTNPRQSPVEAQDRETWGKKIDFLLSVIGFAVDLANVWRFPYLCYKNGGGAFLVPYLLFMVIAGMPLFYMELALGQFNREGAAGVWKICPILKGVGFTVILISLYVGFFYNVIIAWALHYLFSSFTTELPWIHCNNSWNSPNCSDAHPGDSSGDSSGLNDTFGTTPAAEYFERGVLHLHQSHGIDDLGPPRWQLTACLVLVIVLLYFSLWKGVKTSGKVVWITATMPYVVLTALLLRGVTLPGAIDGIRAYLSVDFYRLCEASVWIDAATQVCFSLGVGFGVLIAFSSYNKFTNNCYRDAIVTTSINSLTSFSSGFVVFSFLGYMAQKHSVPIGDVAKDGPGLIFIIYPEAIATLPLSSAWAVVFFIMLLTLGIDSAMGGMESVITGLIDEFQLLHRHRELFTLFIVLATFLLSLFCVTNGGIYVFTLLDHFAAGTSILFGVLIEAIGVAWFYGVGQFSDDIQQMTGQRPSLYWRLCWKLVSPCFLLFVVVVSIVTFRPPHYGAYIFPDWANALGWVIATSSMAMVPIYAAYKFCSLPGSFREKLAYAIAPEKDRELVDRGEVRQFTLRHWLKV

N[C@@]1(c2ccccc2Cl)CCC[C@@H](O)C1=O [2R,6R-hydroxynorketamine, 2R,6R-2-(2-Chlorophenyl)-2-(amino)-6-hydroxycyclohexanone]
% Inhibition of Control Specific Binding (5-HT1A): 5% | % of Control Specific Binding (5-HT1A): 97.9% | binding to 5HT1A receptor subtype (in words) (5-HT1A): does not bind | free (unbound) concentration producing pharmacodynamics activity in the brain, sufficient to increase fEPSPs [1]: approximately 10 μM | compatibility with dicalcium phosphate and microcrystalline cellulose [2]: compatibility | compatibility with lactose monohydrate (DSC) ([2]; binary mix 1:2 API:Excipient): incompatible | % Inhibition of Control Specific Binding (5-HT transporter): 2% | % of Control Specific Binding (5-HT transporter): 102.0% | pKa [3]: 6.51+/−0.02 | solubility (in words) [4]: high | inhibition of CYP2D6 (in words) (CYP2D6): did not inhibit | % Inhibition (CYP2D6; 0.4 μM): 3.16% | % Inhibition (CYP2D6; 1 μM): 6.65% | % Inhibition (CYP2D6; 4 μM): 11.5% | % Inhibition (CYP2D6; 10 μM): 9.41% | % Inhibition (CYP2D6; 40 μM): 11.2% | % Inhibition (CYP2D6; 100 μM): 5.73% | % Inhibition of Control Specific Binding (dopamine transporter): 11% | % of Control Specific Binding (dopamine transporter): 87.2% | % Inhibition of Control Specific Binding [5]: −16% | % of Control Specific Binding [5]: 117.6% | IC50 (CYP1A2): ~100 µM | % Inhibition (CYP1A2; 0.4 μM): 7.55% | % Inhibition (CYP1A2; 1 μM): 8.80% | % Inhibition (CYP1A2; 4 μM): 11.7% | % Inhibition (CYP1A2; 10 μM): 19.3% | % Inhibition (CYP1A2; 40 μM): 24.8% | % Inhibition (CYP1A2; 100 μM): 48.6% | inhibition of CYP2C8 (in words) (CYP2C8): did not inhibit | % Inhibition (CYP2C8; 0.4 μM): 5.63% | % Inhibition (CYP2C8; 1 μM): 4.91% | % Inhibition (CYP2C8; 4 μM): 12.5% | % Inhibition (CYP2C8; 10 μM): 8.33% | % Inhibition (CYP2C8; 40 μM): 8.35% | % Inhibition (CYP2C8; 100 μM): 2.08%
